Measured values: patent publication US20020198177A1, “Coenzyme Q and EPA” (priority 2001, published 2002)

Key:
mantle cell lymphoma = test: Case study: high-dose ethyl eicosapentaenoate in a patient with mantle cell lymphoma; type: in vivo, human
Source text: The following example reports that cancer developed in an individual who had been taking ethyl-EPA at a regular dose of 1 g/d. This individual had also at times in the past three years taken 2 g/d EPA but still cancer developed. […] Doses of 3 g/d to 30 g/d, and preferably of 5 g/d or 20 g/d will therefore be useful in the treatment of cancer. The EPA may be provided in any assimilable form. However, the triglyceride form and the ethyl-ester form are relatively non-irritant to the gastrointestinal tract and are the preferred forms for delivering these large amounts by mouth although other forms could be used for the intravenous route of administration. The EPA for oral administration should be in the purest form possible, at least 70% pure, preferably 80-90% pure, and very preferably 95% or more pure. Docosahexaenoic acid and linoleic acid should each be present at less than 5% and preferably less than 1%. The EPA may be formulated in capsules, liquids or emulsions such as may be required to make it appropriate for either oral or intravenous administration.
A person who had been taking 1 g/d of ethyl eicosapentaenoate as a supplement for general health reasons developed a form of non-Hodgkin's lymphoma called a mantle cell lymphoma. This is characterised by an over-production of a cell cycle controlling factor known as cyclin D1. Cyclin D1 appears to force the cells to divide continually. […] However, high doses are required to achieve the necessary levels in the cancer tissue.
(§1) It was therefore decided to give the patient 10 g/d of 96% pure ethyl eicosapentaenoate containing less than 1% docosahexaenoic acid and no detectable linoleic acid.

cyclin D1 = conditions: in vitro and in animal models of cancer; cited from earlier work
cancerous cells = conditions: cited from earlier work
[1] = type: in vivo, human
Source text: as §1
No certain cause of the abnormal rhythm was identified. One possibility may have been the high intake of EPA. EPA at very high doses might theoretically give rise to oxygenated metabolites which could disturb cardiac rhythm. EPA at low doses seems to be strongly anti-arrhythmic but it is known that many anti-arrhythmic drugs can have pro-arrhythmic actions at certain doses.
Ubiquinone may have favourable effects on cardiac rhythm (R B Singh et al, Cardiovascular Drugs and Therapy 1998; 12: 347-353). 120 mg/day was given to the patient taking high dose EPA. […] The ubiquinone was then stopped after ten days.

[2] = ubiquinone 120 mg/day added to high dose EPA, second day

SMILES	effect on the patient's palpable tumours (mantle cell lymphoma; 10 g/d of 96% pure ethyl eicosapentaenoate, sixth day of treatment, person)	cancer size (mantle cell lymphoma; dose of EPA increased to 10 g/day, within a matter of days)	management of cancer at low dose (mantle cell lymphoma; doses of EPA of 2 g/day or less, cancer developed on 1 g/d, at times 2 g/d)	synthesis of cyclin D1 (cyclin D1)	growth of cancerous cells (cancerous cells)	heart rate and rhythm [1, 2]	heart rate at rest [1, 2] [min⁻¹]	cardiac rate and rhythm abnormality on continued treatment ([1]; ubiquinone plus high dose of EPA over a period of four months)	heart rate and rhythm on reintroducing ubiquinone ([1]; ubiquinone reintroduced, high dose EPA continued)	heart rate and rhythm after stopping ubiquinone ([1]; ubiquinone stopped after ten days, four days after stopping, high dose EPA continued)
CC/C=C\C/C=C\C/C=C\C/C=C\C/C=C\CCCC(=O)OCC [ethyl eicosapentaenoate]	began to regress	reduced dramatically in size	likely to be ineffective	able to inhibit the synthesis of cyclin D1	could inhibit the growth of cancerous cells	–	–	–	–	–
COC1=C(OC)C(=O)C(C/C=C(\C)CC/C=C(\C)CC/C=C(\C)CC/C=C(\C)CC/C=C(\C)CC/C=C(\C)CC/C=C(\C)CC/C=C(\C)CC/C=C(\C)CCC=C(C)C)=C(C)C1=O [ubiquinone]	–	–	–	–	–	returned to normal	65 to 75	no return of the cardiac rate and rhythm abnormality	normal rate and rhythm came back	variability of rate and rhythm returned
